From the supplement of paper PMC10307832

Columns and labels:
Assay in all cases: relative viability (nuclei count vs DMSO), 5 days (fraction); higher = more cells survive
NCI-H1734 = system: NCI-H1734
How it was run: (§1)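 Each reported value is a median over duplicate plates. It expresses relative viability: treated-well nuclei count divided by vehicle-well nuclei count. Lung cancer cell lines in 1536-well plates were dosed by pin tool a day after seeding, alone with one drug or with a fixed anchor-drug dose plus five library-drug doses (not always all listed) in √10 steps, and nuclei were counted after 5 days.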

EMC-BAC-2 = system: EMC-BAC-2
How it was run: as §1

NCI-H647 = system: NCI-H647
How it was run: as §1

NCI-H1915 = system: NCI-H1915
How it was run: as §1

NCI-H1792 = system: NCI-H1792
How it was run: as §1

NCI-H2405 = system: NCI-H2405
How it was run: as §1

LCLC-103H = system: LCLC-103H
How it was run: as §1

EPLC-272H = system: EPLC-272H
How it was run: as §1

SK-LU-1 = system: SK-LU-1
How it was run: as §1

NCI-H1395 = system: NCI-H1395
How it was run: as §1

NCI-H661 = system: NCI-H661
How it was run: as §1

NCI-H1975 = system: NCI-H1975
How it was run: as §1

ABC-1 = system: ABC-1
How it was run: as §1

RERF-LC-KJ = system: RERF-LC-KJ
How it was run: as §1

LOU-NH91 = system: LOU-NH91
How it was run: as §1

201T = system: 201T
How it was run: as §1

NCI-H1793 = system: NCI-H1793
How it was run: as §1

UMC-11 = system: UMC-11
How it was run: as §1

NCI-H23 = system: NCI-H23
How it was run: as §1

NCI-H1651 = system: NCI-H1651
How it was run: as §1

NCI-H2023 = system: NCI-H2023
How it was run: as §1

NCI-H1437 = system: NCI-H1437
How it was run: as §1

HCC-78 = system: HCC-78
How it was run: as §1

With `O=c1[nH]c2ccccc2n1C1CCN(CCCC(c2ccc(F)cc2)c2ccc(F)cc2)CC1` [Pimozide] + C[C@]1(O)C[C@@H](c2nc(-c3ccc4ccc(-c5ccccc5)nc4c3)c3c(N)nccn32)C1 [Linsitinib] (partner 1 µM) the relative viability (NCI-H1734; first compound 0.08 µM) was 0.88, the relative viability (NCI-H1734; first compound 0.253 µM) was 0.829 and the relative viability (NCI-H1734; first compound 0.8 µM) was 0.878. For the same compound, the relative viability (NCI-H1734; first compound 2.53 µM) was 0.944, the relative viability (NCI-H1734; first compound 8 µM) was 0.972 and the relative viability (EMC-BAC-2; first compound 0.08 µM) was 0.768. For the same compound, the relative viability (EMC-BAC-2; first compound 0.253 µM) was 0.787, the relative viability (EMC-BAC-2; first compound 0.8 µM) was 0.828 and the relative viability (EMC-BAC-2; first compound 2.53 µM) was 0.828. It also gave a relative viability (EMC-BAC-2; first compound 8 µM) of 0.749, a relative viability (NCI-H647; first compound 0.08 µM) of 1.16 and a relative viability (NCI-H647; first compound 0.253 µM) of 1.06. The relative viability (NCI-H647; first compound 0.8 µM) was 1.1, the relative viability (NCI-H647; first compound 2.53 µM) was 1.17 and the relative viability (NCI-H647; first compound 8 µM) was 0.779. It also gave a relative viability (NCI-H1915; first compound 0.08 µM) of 1.09, a relative viability (NCI-H1915; first compound 0.253 µM) of 1.06 and a relative viability (NCI-H1915; first compound 0.8 µM) of 0.921. For the same compound, the relative viability (NCI-H1915; first compound 2.53 µM) was 1.09, the relative viability (NCI-H1915; first compound 8 µM) was 1.1 and the relative viability (NCI-H1792; first compound 0.08 µM) was 0.524. The relative viability (NCI-H1792; first compound 0.253 µM) was 0.495, the relative viability (NCI-H1792; first compound 0.8 µM) was 0.417 and the relative viability (NCI-H1792; first compound 2.53 µM) was 0.444. It also gave a relative viability (NCI-H1792; first compound 8 µM) of 0.571, a relative viability (NCI-H2405; first compound 0.08 µM) of 0.888 and a relative viability (NCI-H2405; first compound 0.253 µM) of 0.771. The relative viability (NCI-H2405; first compound 0.8 µM) was 0.876, the relative viability (NCI-H2405; first compound 2.53 µM) was 0.814 and the relative viability (NCI-H2405; first compound 8 µM) was 0.7. It also gave a relative viability (LCLC-103H; first compound 0.08 µM) of 1.01, a relative viability (LCLC-103H; first compound 0.253 µM) of 1.02 and a relative viability (LCLC-103H; first compound 0.8 µM) of 1. It also gave a relative viability (LCLC-103H; first compound 2.53 µM) of 1.07, a relative viability (LCLC-103H; first compound 8 µM) of 1.38 and a relative viability (EPLC-272H; first compound 0.08 µM) of 0.913. For the same compound, the relative viability (EPLC-272H; first compound 0.253 µM) was 1.15, the relative viability (EPLC-272H; first compound 0.8 µM) was 1.21 and the relative viability (EPLC-272H; first compound 2.53 µM) was 1.17. For the same compound, the relative viability (EPLC-272H; first compound 8 µM) was 1.09, the relative viability (SK-LU-1; first compound 0.08 µM) was 1.11 and the relative viability (SK-LU-1; first compound 0.253 µM) was 1.12. The relative viability (SK-LU-1; first compound 0.8 µM) was 0.902, the relative viability (SK-LU-1; first compound 2.53 µM) was 0.732 and the relative viability (SK-LU-1; first compound 8 µM) was 0.851. For the same compound, the relative viability (NCI-H1395; first compound 0.08 µM) was 1.12, the relative viability (NCI-H1395; first compound 0.253 µM) was 1.07 and the relative viability (NCI-H1395; first compound 0.8 µM) was 1.07. It also gave a relative viability (NCI-H1395; first compound 2.53 µM) of 1.35, a relative viability (NCI-H1395; first compound 8 µM) of 1.09 and a relative viability (NCI-H661; first compound 0.08 µM) of 0.659. It also gave a relative viability (NCI-H661; first compound 0.253 µM) of 0.422, a relative viability (NCI-H661; first compound 0.8 µM) of 0.557 and a relative viability (NCI-H661; first compound 2.53 µM) of 0.513. It also gave a relative viability (NCI-H661; first compound 8 µM) of 0.536, a relative viability (NCI-H1975; first compound 0.08 µM) of 0.95 and a relative viability (NCI-H1975; first compound 0.253 µM) of 1.04. For the same compound, the relative viability (NCI-H1975; first compound 0.8 µM) was 0.964, the relative viability (NCI-H1975; first compound 2.53 µM) was 0.926 and the relative viability (NCI-H1975; first compound 8 µM) was 0.741. For the same compound, the relative viability (ABC-1; first compound 0.08 µM) was 0.825, the relative viability (ABC-1; first compound 0.253 µM) was 0.747 and the relative viability (ABC-1; first compound 0.8 µM) was 0.788. It also gave a relative viability (ABC-1; first compound 2.53 µM) of 0.629, a relative viability (ABC-1; first compound 8 µM) of 0.491 and a relative viability (RERF-LC-KJ; first compound 0.08 µM) of 0.885. For the same compound, the relative viability (RERF-LC-KJ; first compound 0.253 µM) was 0.813, the relative viability (RERF-LC-KJ; first compound 0.8 µM) was 0.787 and the relative viability (RERF-LC-KJ; first compound 2.53 µM) was 0.842. The relative viability (RERF-LC-KJ; first compound 8 µM) was 0.8, the relative viability (LOU-NH91; first compound 0.08 µM) was 0.488 and the relative viability (LOU-NH91; first compound 0.253 µM) was 0.97. For the same compound, the relative viability (LOU-NH91; first compound 0.8 µM) was 0.929, the relative viability (LOU-NH91; first compound 2.53 µM) was 1.1 and the relative viability (LOU-NH91; first compound 8 µM) was 0.959. It also gave a relative viability (201T; first compound 0.08 µM) of 1, a relative viability (201T; first compound 0.253 µM) of 1.01 and a relative viability (201T; first compound 0.8 µM) of 1. The relative viability (201T; first compound 2.53 µM) was 1.05, the relative viability (201T; first compound 8 µM) was 0.884 and the relative viability (NCI-H1793; first compound 0.08 µM) was 0.871. For the same compound, the relative viability (NCI-H1793; first compound 0.253 µM) was 0.612, the relative viability (NCI-H1793; first compound 0.8 µM) was 0.861 and the relative viability (NCI-H1793; first compound 2.53 µM) was 0.88. It also gave a relative viability (NCI-H1793; first compound 8 µM) of 0.831, a relative viability (UMC-11; first compound 0.08 µM) of 1.02 and a relative viability (UMC-11; first compound 0.253 µM) of 0.977. It also gave a relative viability (UMC-11; first compound 0.8 µM) of 1.05, a relative viability (UMC-11; first compound 2.53 µM) of 1.07 and a relative viability (UMC-11; first compound 8 µM) of 1.09. It also gave a relative viability (NCI-H23; first compound 0.08 µM) of 0.609, a relative viability (NCI-H23; first compound 0.253 µM) of 0.577 and a relative viability (NCI-H23; first compound 0.8 µM) of 0.49. For the same compound, the relative viability (NCI-H23; first compound 2.53 µM) was 0.553, the relative viability (NCI-H23; first compound 8 µM) was 0.513 and the relative viability (NCI-H1651; first compound 0.08 µM) was 0.897. It also gave a relative viability (NCI-H1651; first compound 0.253 µM) of 1, a relative viability (NCI-H1651; first compound 0.8 µM) of 0.922 and a relative viability (NCI-H1651; first compound 2.53 µM) of 0.97. It also gave a relative viability (NCI-H1651; first compound 8 µM) of 0.951, a relative viability (NCI-H2023; first compound 0.08 µM) of 0.613 and a relative viability (NCI-H2023; first compound 0.253 µM) of 0.654. It also gave a relative viability (NCI-H2023; first compound 0.8 µM) of 0.61, a relative viability (NCI-H2023; first compound 2.53 µM) of 0.667 and a relative viability (NCI-H2023; first compound 8 µM) of 0.443. For the same compound, the relative viability (NCI-H1437; first compound 0.08 µM) was 1.09, the relative viability (NCI-H1437; first compound 0.253 µM) was 1.11 and the relative viability (NCI-H1437; first compound 0.8 µM) was 0.932. It also gave a relative viability (NCI-H1437; first compound 2.53 µM) of 0.899, a relative viability (NCI-H1437; first compound 8 µM) of 0.893 and a relative viability (HCC-78; first compound 0.08 µM) of 0.531. For the same compound, the relative viability (HCC-78; first compound 0.253 µM) was 0.469, the relative viability (HCC-78; first compound 0.8 µM) was 0.549 and the relative viability (HCC-78; first compound 2.53 µM) was 0.46. The relative viability (HCC-78; first compound 8 µM) was 0.536.
